What was measured:
AsPC-1 cells (KRAS G12D) [1] = test: Cell-based pERK HTRF assay in AsPC-1 cells (Biological Example 5); settings: Homo sapiens, ASPC1, AsPC-1 (KRAS G12D) cells
How it was run: (§1)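 Overnight-plated cells (2.5×10^4/well, 10% FBS); 2 h compound, 9-pt 3-fold curve, 0.25% DMSO, 37° C; lysis 30 min RT; Eu cryptate/D2 anti-pERK (T202/Y204) detection 24 h, 4° C; 665/620 ratio → % pERK → 4-PL EC50.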

SW1900 cells (KRAS G12D) [2] = test: Cell-based pERK HTRF assay in SW1900 cells (Biological Example 5); settings: Homo sapiens, SW1990, SW1990 cells (text: SW1900, KRAS G12D)
How it was run: as §1

HPAC cells (KRAS G12D) [3] = test: Cell-based pERK HTRF assay in HPAC cells (Biological Example 5); settings: Homo sapiens, HPAC
How it was run: as §1

[4] = tested on: Capan-2 cells (KRAS G12V); test: Cell-based pERK HTRF assay in Capan-2 cells (Biological Example 5); settings: Homo sapiens, Capan-2, Capan-2 (KRAS G12V) cells
How it was run: as §1

RKN cells (KRAS G12V) [5] = test: Cell-based pERK HTRF assay in RKN cells (Biological Example 5)
How it was run: as §1

H358 cells (KRAS G12C) [6] = test: Cell-based pERK HTRF assay in H358 cells (Biological Example 5); settings: Homo sapiens, NCI-H358, H358 (KRAS G12C) cells
How it was run: as §1

HCT116 cells (KRAS G13D) = test: Cell-based pERK HTRF assay in HCT116 cells (Biological Example 5); settings: Homo sapiens, HCT-116
How it was run: as §1

KP-2 cells (KRAS G12R) = test: Cell-based pERK HTRF assay in KP-2 cells (Biological Example 5); settings: KP-2 (KRAS G12R) cells
Experimental: Biological Example 5: Cell-based PERK HTRF assay in AsPC-1, SW1900, HPAC, Capan-2, RKN, H358, HCT116, KP-2, H1573, A549, MKN1, and HT1080 cells
The inhibition of ERK phosphorylation, as measured using the HTRF Advanced Phospho-ERK 1/2 (Thr202/Tyr204) Detection Assay kit (Perkin Elmer), was used to determine the effectiveness of test compounds in disrupting KRAS-driven protein/effector signaling in cells.
On day 1, cells were seeded into 96-well plates at 2.5×10^4 cells/well in 100 μL of complete growth media supplemented with 10% fetal bovine serum (FBS) and incubated at 37° C., in the presence of 5% CO2.
On day 2, cells were treated with compounds diluted in DMSO at 0.25% final DMSO concentration. Compounds were dosed in a 9-point concentration curve with three-fold dilution between concentrations. Cells were incubated in the presence of compound for two hours at 37° C. Following this treatment period, cells were harvested by aspirating the media, adding 40 μL of kit-supplied 1x lysis buffer per well, and shaking for 30 minutes at 250 rpm at room temperature.
Following cell lysis, samples were homogenized by pipetting up and down twenty times and 16 μL of cell lysate per well was transferred from the 96-well cell culture plate to two wells of a 384-well detection plate. A complete detection buffer was prepared by diluting D2 and Eu Cryptate antibodies 1:20 in kit-provided detection solution, 4 μL of complete detection buffer was then added to each well with lysate. Plates were incubated with gentle rocking for 24 hours at 4° C.
Following this incubation period, plates were centrifuged at 500×g for one minute and analyzed on a CLARIOstar plate reader. Data was imported into Microsoft Excel and the signal from the 665 nm channel was divided by the signal from the 620 nm channel. % pERK was calculated as: […]
Data was imported to the Prism software package (Graphpad) and EC50 values were calculated using the log (inhibitor) vs, response—variable slopc (Four parameters) model.

[7] = tested on: MKN1 cells (KRAS amplification); test: Cell-based pERK HTRF assay in MKN1 cells (Biological Example 5); settings: Homo sapiens, MKN-1, MKN cells (MKN1, KRAS amplification)
How it was run: as §1

HT1080 cells (NRAS) [8] = test: Cell-based pERK HTRF assay in HT1080 cells (Biological Example 5); settings: Homo sapiens, HT-1080
How it was run: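 Cells seeded at 2.5×10^4/well in 10% FBS medium overnight, then treated 2 h at 37 °C with a 9-point, 3-fold compound series (0.25% DMSO). Lysates read by HTRF for pERK1/2 (Thr202/Tyr204), 665/620 nm ratio; EC50 from four-parameter fit.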

AsPC-1 cells (KRAS G12D) [9] = test: 3D Cell viability assay in AsPC-1 cells (Biological Example 6); assay type: cell-based; settings: Homo sapiens, ASPC1; AsPC-1 (KRAS G12D) spheroids, 72 hours
How it was run: (§2)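 Spheroids formed from 1000 cells/well over 48 h in ultra-low-attachment plates, 10% FBS medium, 37 °C, 5% CO2. Then treated 72 h with a 9-point, three-fold compound series at 0.25% DMSO. Viability by CellTiter-Glo 3D luminescence, EC50 from four-parameter variable-slope fit.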

SW1900 cells (KRAS G12D) [10] = test: 3D Cell viability assay in SW1900 cells (Biological Example 6); assay type: cell-based; settings: Homo sapiens; SW1990 (text: SW1900, KRAS G12D) spheroids, 72 hours
How it was run: as §2

HPAC cells (KRAS G12D) [11] = test: 3D Cell viability assay in HPAC cells (Biological Example 6); assay type: cell-based; settings: Homo sapiens, HPAC, 72 h, HPAC (KRAS G12D) spheroids
How it was run: as §2

[12] = tested on: Capan-2 cells (KRAS G12V); test: 3D Cell viability assay in Capan-2 cells (Biological Example 6); assay type: cell-based; settings: Homo sapiens; Capan-2 (KRAS G12V) spheroids, 72 hours
How it was run: as §2

RKN cells (KRAS G12V) [13] = test: 3D Cell viability assay in RKN cells (Biological Example 6); assay type: cell-based; settings: RKN (KRAS G12V) spheroids, 72 hours
How it was run: as §2

H358 cells (KRAS G12C) [14] = test: 3D Cell viability assay in H358 cells (Biological Example 6); assay type: cell-based; settings: Homo sapiens, NCI-H358; H358 (KRAS G12C) spheroids, 72 hours
How it was run: as §2

[15] = tested on: MKN1 cells (KRAS amplification); test: 3D Cell viability assay in MKN1 cells (Biological Example 6); assay type: cell-based; settings: Homo sapiens, MKN-1; MKN (MKN1, KRAS amplification) spheroids, 72 hours
How it was run: as §2

HT1080 cells (NRAS) [16] = test: 3D Cell viability assay in HT1080 cells (Biological Example 6); assay type: cell-based; settings: Homo sapiens, HT-1080; HT1080 (NRAS) spheroids, 72 hours
How it was run: as §2

Structure (SMILES) | IC50 (AsPC-1 cells (KRAS G12D) [1]) [nM] | IC50 (SW1900 cells (KRAS G12D) [2]) [nM] | IC50 (HPAC cells (KRAS G12D) [3]) [nM] | IC50 [4] [nM] | IC50 (RKN cells (KRAS G12V) [5]) [nM] | IC50 (H358 cells (KRAS G12C) [6]) [nM] | IC50 (HCT116 cells (KRAS G13D)) [nM] | IC50 (KP-2 cells (KRAS G12R)) [nM] | IC50 [7] [nM] | IC50 (HT1080 cells (NRAS) [8]) [nM] | IC50 (AsPC-1 cells (KRAS G12D) [9]) [nM] | IC50 (SW1900 cells (KRAS G12D) [10]) [nM] | IC50 (HPAC cells (KRAS G12D) [11]) [nM] | IC50 [12] [nM] | IC50 (RKN cells (KRAS G12V) [13]) [nM] | IC50 (H358 cells (KRAS G12C) [14]) [nM] | IC50 [15] [nM] | IC50 (HT1080 cells (NRAS) [16]) [nM]
CCN(c1nc(OC[C@@]23CCCN2C[C@H](F)C3)nc2c(F)c(-c3ccc(F)c4sc(N)c(C#N)c34)c(C(F)(F)F)cc12)[C@H]1CCN(C(=O)OC)C1 (atropisomer, axis not shown) [Compound 541, methyl(3S)-3-[[7-(2-amino-3-cyano-7-fluoro-benzothiophen-4-yl)-8-fluoro-2-[[(2R,8S)-2-fluoro-1,2,3,5,6,7-hexahydropyrrolizin-8-yl]methoxy]-6-(trifluoromethyl)quinazolin-4-yl]-ethyl-amino]pyrrolidine-1-carboxylate] | ≤ 100 | ≤ 100 | ≤ 100 | ≤ 100 | ≤ 100 | ≤ 100 | ≤ 100 | 100 to 1000 | ≤ 100 | > 1000 | ≤ 100 | ≤ 100 | ≤ 100 | ≤ 100 | ≤ 100 | ≤ 100 | ≤ 100 | > 1000
CCN(c1nc(OC[C@@]23CCCN2C[C@H](F)C3)nc2c(F)c(-c3ccc(F)c4sc(N)c(C#N)c34)c(C(F)(F)F)cc12)[C@H]1C[C@H]2CN(C)C(=O)N2C1 (atropisomer, axis not shown; (aS)) [Compound 543, 2-amino-4-((S)-4-(ethyl((6S,7aS)-2-methyl-3-oxohexahydro-1H-pyrrolo[1,2-c]imidazol-6-yl)amino)-8-fluoro-2-(((2R,7aS)-2-fluorotetrahydro-1H-pyrrolizin-7a(5H)-yl)methoxy)-6-(trifluoromethyl)quinazolin-7-yl)-7-fluorobenzo[b]thiophene-3-carbonitrile] | ≤ 100 | ≤ 100 | ≤ 100 | ≤ 100 | ≤ 100 | ≤ 100 |  |  | ≤ 100 |  | ≤ 100 | ≤ 100 | ≤ 100 | ≤ 100 | ≤ 100 | ≤ 100 | ≤ 100 | 
CCN(c1nc(OC[C@@]23CCCN2C[C@H](F)C3)nc2c(F)c(-c3ccc(F)c4sc(N)c(C#N)c34)c(C(F)(F)F)cc12)[C@H]1CCN(C(=O)C(C)C)C1 (single isomer, unassigned) [Compound 469] | ≤ 100 | ≤ 100 | 100 to 1000 | ≤ 100 | ≤ 100 | ≤ 100 | ≤ 100 | 100 to 1000 | ≤ 100 | > 1000 | ≤ 100 | ≤ 100 | ≤ 100 | ≤ 100 | ≤ 100 | ≤ 100 | ≤ 100 | > 1000
Cc1c(C(=O)N(C)C)nn2c1CN(c1nc(OC[C@@]34CCCN3C[C@H](F)C4)nc3c(F)c(-c4ccc(F)c5sc(N)c(C#N)c45)c(C(F)(F)F)cc13)CC2 [Compound 501] | ≤ 100 | ≤ 100 | ≤ 100 | ≤ 100 | ≤ 100 | ≤ 100 | 100 to 1000 | 100 to 1000 | ≤ 100 |  | ≤ 100 | ≤ 100 | 100 to 1000 | ≤ 100 | ≤ 100 | ≤ 100 | ≤ 100 | 
